Results: patent publication US6893813B2, “Methods for treatment of HIV and other infections using a T cell or viral activator and anti-retroviral combination therapy” (priority 1997, dated 2005)

How the values were obtained:
[1] = tested on: HIV; experiment: HIV replication (p24 in culture supernatant) in PBMC cultures without anti-retroviral drugs; type: cell-based, human; details: no anti-retroviral drugs
From the text: (§1) The percent of CD8+ cells in the culture increased with lower concentrations of CD3,8 BSMAB. […] Absent anti-retroviral drugs, this massive activation of HIV will eventually cause a sharp decrease in the CD4+ T cell population.

[2] = tested on: PBMCs isolated from HIV-infected subjects; experiment: culture of PBMCs from HIV-infected subjects without anti-retroviral drugs: T cell subsets; type: cell-based, human; details: no anti-retroviral drugs
From the text: as §1

For phytohemagglutinin [PHA], the “HIV replication (p24 in supernatant)” value [1] was “induced increased HIV replication”, the “T cell subsets activated” value [2] was “both CD4+ and CD8+ T cells were activated” and the “selective outgrowth of CD4+ T cells” value [2] was “No selective outgrowth of the CD4+ T cells occurred”.
